Residue numbers refer to the chain shown, from its start.
How the values were obtained:
FXR A291W = biological target: T1, FXR A291W (Homo sapiens, UniProt Q96RI1, A305W); assay: Reporter gene analysis with FXR point mutant A291W in COS-7 cells; format: cell-based; settings: COS-7, EcRE reporter, FIG. 5
T1 construct: the expression plasmid expressing full-length FXR (wt) or with mutations at the corresponding sites; expressed in transfected cells; host or cells: COS-7
T1 sequence (Q96RI1 1-472 isoform Q96RI1-2 A291W): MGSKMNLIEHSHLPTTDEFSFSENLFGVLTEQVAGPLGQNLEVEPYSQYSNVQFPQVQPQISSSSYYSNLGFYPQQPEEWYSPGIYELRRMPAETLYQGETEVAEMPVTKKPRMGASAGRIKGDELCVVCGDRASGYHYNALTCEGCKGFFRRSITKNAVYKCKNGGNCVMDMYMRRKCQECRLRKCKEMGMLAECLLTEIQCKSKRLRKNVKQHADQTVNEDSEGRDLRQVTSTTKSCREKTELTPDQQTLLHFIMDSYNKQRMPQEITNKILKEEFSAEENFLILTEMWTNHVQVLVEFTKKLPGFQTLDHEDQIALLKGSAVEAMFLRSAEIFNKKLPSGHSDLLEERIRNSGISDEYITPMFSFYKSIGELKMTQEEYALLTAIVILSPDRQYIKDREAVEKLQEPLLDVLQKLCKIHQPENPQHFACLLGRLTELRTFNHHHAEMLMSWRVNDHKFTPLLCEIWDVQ
Method: (§1) (2) The expression vector of FXR with point mutations at key binding sites is obtained. Quick-Change site-directed mutagenesis kit (Stratagene) is used for mutation, and the mutation reaction system is as follows: wild-type plasmid pCMX-FXR (50 ng) of 0.5 μl, mutation primer (100 μM) of 0.2 μl, pfu DNA polymerase (Invitrogen) (2 U) of 1 μl, 10 mM dNTPs of 1 μl, 10× PCR buffer of 5 μl, and ddH2O of 43 μl. PCR procedures are performed as follows: 94° C. for 2 min; 94° C. for 30 s, 55° C. for 1 min, 72° C. for 7 min, 15 cycles. 20 μl PCR product is digested with Dpn I […], followed by taking and transforming 2 μl digestion product into E. coli Trans 109 competent cells, ice bath for 30 min, and heat shock at 42° C. for 30 s. 250 μl of LB liquid medium without antibiotics is added, and preshaken at 225 rpm at 37° C. for 40 min, followed by taking 150 μl of products, spreading same on LB solid medium plates with ampicillin at 100 μg/ml and culturing them at 37° C. overnight. On the next day, the single colony is picked out and placed in 2 ml LB liquid medium containing ampicillin at 100 μg/ml, and cultured at 37° C. overnight. Plasmid extraction is performed on the shaken bacterial solution using Qiagen MiniPrep Plasmid Minipreparation Kit. The plasmid is identified by sequencing.

FXR F284H = biological target: T2, FXR F284H (Homo sapiens, UniProt Q96RI1, F298H); assay: Reporter gene analysis with FXR point mutant F284H in COS-7 cells; format: cell-based; settings: COS-7, EcRE reporter, FIG. 5
T2 construct: the expression plasmid expressing full-length FXR (wt) or with mutations at the corresponding sites; expressed in transfected cells; host or cells: COS-7
Method: as §1

FXR H447F = biological target: T3, FXR H447F (Homo sapiens, UniProt Q96RI1, H461F); assay: Reporter gene analysis with FXR point mutant H447F in COS-7 cells; format: cell-based; settings: COS-7, EcRE reporter, vs wild-type FXR, FIG. 5
T3 construct: the expression plasmid expressing full-length FXR (wt) or with mutations at the corresponding sites; expressed in transfected cells; host or cells: COS-7
T3 sequence (Q96RI1 1-472 isoform Q96RI1-2 H447F): T1 sequence (Q96RI1 1-472 isoform Q96RI1-2 A291W) with W291A, H447F
Method: as §1

wild-type C57BL/6J mice = assay: Mouse trial, wild-type mice fed with high-fat diet; settings: 1.3 mg/kg i.p. daily, 14 days
Method: (§2) Wild-type C57BL/6J mice of 9-10 weeks old, and FXR gene deletion homozygous mice (FXR^−/−) and diabetes and obesity mouse model mice (KK-Ay) with the same background are used, fed with high-fat diet (Research Diets, D12492), with free access to water, in SPF grade animal room in experimental animal center, Xiamen University. […] Intraperitoneal injection is performed one time at 9 o'clock every morning, continued for 14 days, and the mice are measured for body weight and the food intake every two days. At the end of 14 days, the mice are provided with free access to water, and after being hungry for 6 h, the mouse body weights are measured, and the percentage of the final body weight relative to the initial body weight before the treatment of the injection trial indicates the change of mouse body weight. Then blood is sampled from the eye balls, and sera are obtained by separation. The components in serum are detected by the following kits respectively: sugar-oxidase method (Beijing Applygen); insulin (Crystal Chem. Inc., USA); total cholesterol and cholesterol in high and low density lipoprotein (Bioassay Systems, USA); triglyceride (Beijing Applygen and WAKO Chemicals Inc., Japan); free fatty acids (Bioassay Systems, USA); and aspartate aminotransferase and alanine aminotransferase (Biosino Bio-technology and Science Inc., Beijing, China). Mouse liver is taken, a part of which is fixed with paraformaldehyde, and embedded with paraffin, sectioned, and stained with hematoxylin and eosin, and a part of which is cryopreserved with liquid nitrogen for use in extracting RNA for measuring gene expression with fluorescence quantitative PCR.

[1] = system: FXR gene deletion homozygous mice (FXR−/−); assay: Mouse trial, FXR knockout mice fed with high-fat diet; format: in vivo; settings: 1.3 mg/kg i.p. daily, 14 days
Method: as §2

KK-Ay mice = assay: Mouse trial, KK-Ay diabetes and obesity model mice fed with high-fat diet; format: in vivo
Source text: In order to detect the efficacy of abamectin/avermectin, ivermectin and the derivative doramectin in the body of a diabetes and obesity mouse model, we choose diabetes and obesity mouse model mice, KK-Ay mice, as the experimental subject.

[2] = system: FXR knockout mouse liver cells; assay: LPS induced inflammatory gene expression in FXR knockout mouse liver cells; format: cell-based
Source text: Ivermectin and LPS are used to treat wild-type and FXR knockout mouse liver cells.

[3] = i.p. daily 14 days, ivermectin/derivatives 1.3 mg/kg, GW4064 30 mg/kg

T2 sequence (Q96RI1 1-472 isoform Q96RI1-2 F284H): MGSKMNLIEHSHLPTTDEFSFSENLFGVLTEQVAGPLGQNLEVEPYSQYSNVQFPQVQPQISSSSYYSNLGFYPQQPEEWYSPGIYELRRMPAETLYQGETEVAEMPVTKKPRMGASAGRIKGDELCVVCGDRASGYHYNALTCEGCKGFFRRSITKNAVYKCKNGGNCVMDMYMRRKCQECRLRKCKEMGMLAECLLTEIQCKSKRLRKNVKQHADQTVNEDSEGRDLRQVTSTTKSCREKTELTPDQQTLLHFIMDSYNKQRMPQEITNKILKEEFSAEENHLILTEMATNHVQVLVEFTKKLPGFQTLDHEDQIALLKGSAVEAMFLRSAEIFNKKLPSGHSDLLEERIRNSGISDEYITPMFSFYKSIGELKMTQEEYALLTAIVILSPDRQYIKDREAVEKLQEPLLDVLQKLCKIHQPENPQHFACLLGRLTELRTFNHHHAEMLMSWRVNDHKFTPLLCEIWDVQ

How did the “transcriptional activity of FXR mutant A291W” value (FXR A291W) turn out when `CC[C@H](C)[C@H]1O[C@]2(CC[C@@H]1C)C[C@@H]1C[C@@H](C/C=C(\C)C(O[C@H]3C[C@H](OC)C(O[C@H]4C[C@H](OC)[C@@H](O)[C@H](C)O4)[C@H](C)O3)[C@@H](C)/C=C/C=C3\CO[C@@H]4[C@H](O)C(C)=CC(C(=O)O1)[C@]34O)O2` (some centres unmarked) [ivermectin] was run?
Its value is “incapable of activating the transcriptional activity of FXR”.

What about the “transcriptional activity of FXR mutant F284H” value (FXR F284H) of the same molecule?
Its value is “incapable of activating the transcriptional activity of FXR”.

What about the “transcriptional activity of FXR mutant H447F” value (FXR H447F) of the same molecule?
The value was “significantly increasing”.

What about the “activity of serum alanine aminotransferase” value (wild-type C57BL/6J mice; FIG. 11) of the same molecule?
Its value is “does not affect the transaminase activity”.

And the “activity of serum aspartate aminotransferase” value (wild-type C57BL/6J mice; FIG. 11)?
The value was “does not affect the transaminase activity”.

What about the “liver injury, liver section stained with hematoxylin and eosin” value (wild-type C57BL/6J mice; FIG. 12) of the same molecule?
Its value is “produces no injury to liver cells”.

What about the “cholesterol level in high density lipoprotein” value (wild-type C57BL/6J mice; high-fat diet) of the same molecule?
Its value is “significantly downregulated”.

And the “cholesterol levels in low density and very low density lipoprotein” value (wild-type C57BL/6J mice; high-fat diet)?
Its value is “downregulated”.

And the serum cholesterol level (wild-type C57BL/6J mice; high-fat diet)?
The serum cholesterol level was “significantly decreases”.

And the serum glucose level (wild-type C57BL/6J mice; high-fat diet)?
Its serum glucose level is “significantly decreases”.

What about the serum insulin level (wild-type C57BL/6J mice; high-fat diet) of the same molecule?
The serum insulin level was “significantly decreases”.

What about the “serum triglyceride (Tg) level” value (wild-type C57BL/6J mice; high-fat diet) of the same molecule?
Its value is “significantly decrease”.

What about the serum cholesterol level [1] of the same molecule?
The serum cholesterol level was “not producing any significant change”.

And the serum glucose level [1]?
Its serum glucose level is “not producing any significant change”.

And the serum insulin level [1]?
The serum insulin level was “does not produce any significant change”.

What about the “cholesterol in high density lipoprotein” value ([1]; FIG. 8) of the same molecule?
The value was “not affected”.

What about the “cholesterol in low density/very low density lipoprotein” value ([1]; FIG. 8) of the same molecule?
Its value is “not affected”.

And the serum insulin level (KK-Ay mice; 1.3 mg/kg i.p. daily, 14 days)?
The serum insulin level was “significantly decreases”.

And the “serum saccharides (glucose) level” value (KK-Ay mice; 1.3 mg/kg i.p. daily, 14 days)?
Its value is “significantly decreases”.

What about the “serum free fatty acids” value (KK-Ay mice; i.p. daily 14 days, ivermectin 1.3 mg/kg, GW4064 30 mg/kg) of the same molecule?
The value was “significantly decrease”.

And the serum cholesterol (KK-Ay mice; [3])?
Its serum cholesterol is “significantly decrease”.

What about the serum triglycerides (KK-Ay mice; [3]) of the same molecule?
Its serum triglycerides is “significantly decrease”.

What about the “expression of inflammatory factors induced by LPS” value [2] of the same molecule?
Its value is “no clear change”.

From patent US10052340B2 (XIAMEN UNIVERSITY, priority 2012, dated 2018)
